Values after ≈ are worked out from the molar mass of the structure shown.

One data set has as its system NIH3T3. Description: cells. To be noted: Mus musculus, BALB/c, NIH3T3, light or radiation study.
A short description of the next data set: in vitro. To be noted: mouse, nih3t3.
The next data set concerns the target T1, Progesterone receptor (Homo sapiens, UniProt P06401).
T1 sequence (P06401 whole entry): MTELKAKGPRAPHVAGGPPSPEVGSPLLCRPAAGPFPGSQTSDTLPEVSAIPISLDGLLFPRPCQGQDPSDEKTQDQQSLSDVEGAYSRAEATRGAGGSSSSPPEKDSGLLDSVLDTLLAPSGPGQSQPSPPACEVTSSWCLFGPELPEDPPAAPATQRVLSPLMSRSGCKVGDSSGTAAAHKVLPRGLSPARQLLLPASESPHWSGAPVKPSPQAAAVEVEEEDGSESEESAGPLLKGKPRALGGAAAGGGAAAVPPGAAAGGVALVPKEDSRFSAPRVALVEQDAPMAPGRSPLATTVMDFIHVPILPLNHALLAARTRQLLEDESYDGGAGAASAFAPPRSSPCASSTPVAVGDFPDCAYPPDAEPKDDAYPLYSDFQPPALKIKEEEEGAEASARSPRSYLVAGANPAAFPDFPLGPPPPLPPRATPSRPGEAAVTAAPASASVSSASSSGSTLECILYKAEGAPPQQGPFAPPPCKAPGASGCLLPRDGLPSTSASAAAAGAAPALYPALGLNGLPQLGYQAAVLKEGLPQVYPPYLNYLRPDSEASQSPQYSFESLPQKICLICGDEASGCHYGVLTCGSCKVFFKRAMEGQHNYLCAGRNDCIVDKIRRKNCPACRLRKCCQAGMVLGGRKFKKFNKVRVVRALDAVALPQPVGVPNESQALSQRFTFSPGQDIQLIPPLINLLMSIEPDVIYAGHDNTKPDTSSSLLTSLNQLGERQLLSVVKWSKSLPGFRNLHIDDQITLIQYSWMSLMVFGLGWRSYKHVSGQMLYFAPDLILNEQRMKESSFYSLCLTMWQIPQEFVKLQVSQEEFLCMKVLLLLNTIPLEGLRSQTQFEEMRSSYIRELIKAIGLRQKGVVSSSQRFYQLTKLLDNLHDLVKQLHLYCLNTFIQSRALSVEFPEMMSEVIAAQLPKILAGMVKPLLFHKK
The class given is cell-based, HEK293T.

Data set [1] deals with T2, Thyroid hormone receptor beta (Homo sapiens, UniProt P10828).
T2 sequence (P10828 whole entry): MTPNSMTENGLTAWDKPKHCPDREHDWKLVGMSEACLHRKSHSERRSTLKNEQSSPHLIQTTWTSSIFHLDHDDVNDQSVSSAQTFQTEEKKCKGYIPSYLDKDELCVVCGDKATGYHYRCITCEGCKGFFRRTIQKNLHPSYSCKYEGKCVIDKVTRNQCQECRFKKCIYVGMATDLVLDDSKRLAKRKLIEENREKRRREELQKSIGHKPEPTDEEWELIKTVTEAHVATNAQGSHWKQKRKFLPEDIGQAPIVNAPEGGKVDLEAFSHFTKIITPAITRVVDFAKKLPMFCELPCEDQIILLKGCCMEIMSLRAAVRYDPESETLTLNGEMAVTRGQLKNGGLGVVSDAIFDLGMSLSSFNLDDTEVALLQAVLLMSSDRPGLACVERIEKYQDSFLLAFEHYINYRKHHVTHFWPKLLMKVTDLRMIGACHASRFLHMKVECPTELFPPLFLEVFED
It is filed as cell-based, HEK293T.
Description: Antagonist activity at TRbeta in HEK293T cells assessed as reduction in transcriptional activity incubated for 24 hrs by britelite plus reagent based plate reader assay

Data set [2] in a line: in vivo. To be noted: C57BL/6, mouse, iv, 1 mg/kg.
The nature of data set [3]: in vivo. To be noted: C57BL/6, mouse, iv, 1 mg/kg. The source holds these as a separate data set.
A short description of data set [4]: in vivo. The conditions noted are these: C57BL/6, mouse, brain, iv, 1 mg/kg.
Data set [5] is described as follows: in vivo. To be noted: C57BL/6, mouse, iv, 1 mg/kg. The source holds these as a separate data set.
Data set [6] can be described thus: in vivo. The conditions noted are these: C57BL/6, mouse, iv, 1 mg/kg. The source holds these as a separate data set.
A short description of data set [7]: in vivo. The conditions noted are these: C57BL/6, mouse, iv, 1 mg/kg. This is another data set of the same source.

Description for NIH3T3: Phototoxicity against BALB/c mouse 3T3 cells assessed as reduction in cell viability preincubated for 1 hr followed by 5 J/cm2 irradiation and subsequent replacement of medium without compound and measured after 24 hrs by neutral red dye based assay
Description for Progesterone receptor: Antagonist activity at PR in HEK293T cells assessed as reduction in transcriptional activity incubated for 24 hrs by britelite plus reagent based plate reader assay
Description for in vitro: Dark toxicity against BALB/c mouse 3T3 cells assessed as reduction in cell viability incubated for 1 hr by neutral red dye based assay

One may read the IC50 as the concentration that inhibits the measured activity by half. A high value points to weaker potency. `CN(C)CCCN1c2ccccc2Sc2ccc(Cl)cc21` [CHLORPROMAZINE] yielded an IC50 with NIH3T3 of 0.93 µg/mL (≈ 2.92 µM). In the data set “in vitro”, this compound came in with an IC50 at 1 h of 45.1 µg/mL (≈ 141 µM).

As to `C[C@](O)(CN1CC2CC(C1)N2c1ccc(C#N)cc1)C(=O)Nc1cnc(C#N)c(C(F)(F)F)c1`, the values for the IC50 (against Progesterone receptor; in data set [1]) were 3.5 µM and above 10 µM, respectively.

The AUC(0-t) is exposure summed from dosing to a finite time, without extrapolation to infinity. The clearance is the volume of plasma or blood freed of the substance per unit of time. What is called half-life is how long it takes for the measured level to halve. Low values mean fast loss, high ones slow loss. What is called Vd is the apparent volume that relates the amount in the body to the concentration in plasma or blood. Lower therefore signals little distribution into tissue. With `C[C@](O)(CN1CC2CC(C1)N2c1ccc(C#N)cc1F)C(=O)Nc1cnc(C#N)c(C(F)(F)F)c1`, the C0 at 24 h in the data set “in vivo [2]” came to 1060 ng/mL. The AUC(0-t) at 24 h in the data set “in vivo [3]” came to 444 ng·h/mL. Further, the Kp at 24 h in “in vivo [4]” was determined as 0.45. Moreover, the clearance at 24 h in “in vivo [5]” is 37.8 mL/min/kg. In “in vivo [6]”, the half-life at 24 h was 54.6 min. The compound also registered a Vd at 24 h in the data set “in vivo [7]” of 1.35 L/kg.

The record behind these values is ChEMBL document CHEMBL5532667 (J Med Chem, 2024).
